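Protocol summary: plate cells (96-well), add compound at 5 concentrations, incubate 48 h, interpolate endpoints linearly. GI50 is the concentration that inhibits growth by half. TGI denotes the concentration required for complete inhibition of growth.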
Tested on: MDA-MB-468 breast
Assay: NCI anticancer screen, dose series, 48 h

SMILES | GI50 | TGI
CC(=Nc1ccccc1)C1=C(O)C(Cc2ccccc2)NC1=O (configuration not stated) | 17.3 nM | 50.2 nM
Cc1c(COc2cc(OCc3cccc(C#N)c3)c(CN3C[C@H](O)C[C@@H]3C(=O)O)cc2Cl)cccc1-c1ccc2c(c1)OCCO2 | 6720 nM | 20500 nM
Cc1ccc2ccc3ccc(C)nc3c2n1.Cc1ccc2ccc3ccc(C)nc3c2n1.Oc1c(Cl)cc(Cl)c2ccc(CN3CCCCC3)nc12.[Ru] | 248 nM | 875 nM
Cc1cc(Cl)ccc1NC(=O)c1cc2ccccc2cc1O | 1780 nM | 7420 nM
O=C(Nc1ccc2ncnc(Nc3ccc(Oc4cccc(F)c4)c(Cl)c3)c2c1)c1ccc(CNCCO)cc1 | 561 nM | 2020 nM
COc1ccc(Nc2c3ccccc3nc3ccccc23)cc1 | 547 nM | 4530 nM
CC[C@@H](C(=O)[C@@H](C)[C@@H](O)[C@H](C)[C@@H]1O[C@@H]([C@@H](CC)C(=O)N(CC)CC)CC[C@@H]1C)C1O[C@]2(C=CC(=O)[C@]3(CC[C@@](C)([C@H]4CC[C@](O)(CC)[C@H](C)O4)O3)O2)[C@H](C)C[C@@H]1C (some centres not stated) | 943 nM | 3190 nM
COc1cc(Nc2ccnc(NCCCNc3ccnc4cc(Cl)ccc34)n2)cc(OC)c1 | 1490 nM | 3180 nM
CC1(C)[C@@H](O[C@@H]2OC[C@@H](O[C@@H]3O[C@H](CO)[C@@H](O)[C@H](O)[C@H]3O[C@@H]3OC[C@@H](O)[C@H](O)[C@H]3O)[C@H](O)[C@H]2O[C@@H]2O[C@H](CO)[C@@H](O)[C@H](O)[C@H]2O)CC[C@]2(C)[C@H]3CC[C@]45OC[C@@]6(CC[C@](C)(C=O)C[C@H]64)[C@H](O)C[C@@]5(C)[C@]3(C)CC[C@@H]12 | 941 nM | 1960 nM
C[C@@H](CO)[C@@H]1CCC=C2CC[C@]3(C)[C@H](CC[C@@H]4[C@@]5(C)CCCNC(C)(C)[C@@H]5CC[C@]43C)[C@H]21 | 1800 nM | 3400 nM
CN1CCN(c2ccc3nc(-c4ccc5nc(-c6ccc(OCCC(C)(C)C)cc6)[nH]c5c4)[nH]c3c2)CC1 | 1910 nM | 4130 nM
NC(=O)c1ccc2nc(-c3ccc(Oc4ccc(Cl)cc4)cc3)[nH]c2c1 | 10500 nM | 29300 nM
NC(=O)c1cc(-c2ccc(F)cc2)cc(-c2ccncc2)c1N | 8170 nM | > 25000 nM
Fc1ccc(Nc2nc3nonc3nc2Nc2ccc(F)cc2)cc1 | 281 nM | 1460 nM
Cc1cc(N(CCNc2ccnc3cc(Cl)ccc23)Cc2ccco2)nc(Cl)n1 | 1500 nM | 3070 nM
CC(=O)O[C@]1(C(C)=O)CC[C@H]2[C@@H]3C=C(C)C4=CC(=O)CC[C@]4(C)[C@H]3CC[C@@]21C | 77700 nM | > 100000 nM
Oc1[nH]c2ccc(Cl)cc2c1/C=c1/ccc2c(c1)N=C(c1ccc(F)cc1)N=2 | 2020 nM | 3570 nM
CN1c2ccccc2C(C)(C)C12C=Cc1cc(O)ccc1O2 (configuration not stated) | 3460 nM | 16700 nM
O=[N+]([O-])c1c(Br)sc(Br)c1[N+](=O)[O-] | 1270 nM | 2910 nM

SMILES | GI50 | TGI
CCC1CCc2nc3sc(C(=O)Nc4cccc(F)c4)c(N)c3cc2C1 (configuration not stated) | 471 nM | > 100000 nM
CCNC(=O)c1cc2c(-c3cc(C(C)(C)O)ccc3Oc3c(C)cc(F)cc3C)cn(C)c(=O)c2[nH]1 | 1170 nM | 7450 nM
CCCCCCCCCCCC1CCCC(C)N1 (configuration not stated) | 15500 nM | 31000 nM
Cc1cccc2c(=O)c3c(sc12)c(NCCNCCO)nc1ccccc13 | 1090 nM | 2500 nM
CN(C)c1ccc(Nc2cc(-c3cccc(OC(F)(F)F)c3)nc3ccc(N4CCCC4)cc23)cc1 | 2050 nM | 4380 nM
Nc1nc(-c2ccccc2)nc(N)c1N=O | 1750 nM | 5700 nM
COc1cc(/C=C/C(=O)c2ccc(NC(=O)CN3CCN(c4cc5c(cc4F)c(=O)c(C(=O)O)cn5C4CC4)CC3)cc2)cc(OC)c1OC | 358 nM | –
O=C(/C=C/c1cc([N+](=O)[O-])ccc1Cl)c1ccccc1 | 8460 nM | 22100 nM
COc1cc2c(cc1Nc1nc(Nc3ccsc3C(N)=O)c3cc[nH]c3n1)N(C(=O)CN(C)C)CCC2(C)C | 471 nM | 2600 nM
CCCCCCCCCCCCCC[n+]1ccc2c(C)c3c(c(C)c2c1)c1cc(O)ccc1n3CC | 176 nM | 654 nM
CN(CC(=O)N(Cc1ccc(C2CCCCC2)cc1)c1ccc(C(=O)O)c(O)c1)S(=O)(=O)c1c(F)c(F)c(F)c(F)c1F | 1760 nM | 3760 nM
O=C1/C(=C/c2ccc(Cl)cc2)N=C(c2ccccc2)N1CCc1cccs1 | 13700 nM | 98200 nM
COc1ccc(OC)c(/C=C(/C)[N+](=O)[O-])c1 | 1270 nM | 2680 nM
N#CSCC1CC(O)(c2ccccc2)CC(c2ccc(F)cc2)O1 (configuration not stated) | 2250 nM | 7550 nM
COc1ccc(Cn2cc3c(c2-c2ccc(OC)cc2)CCc2cnoc2-3)cc1 | 254 nM | 809 nM
Nc1nc(-c2ccc(F)cc2)c(-c2ccc3ncccc3n2)s1 | – | > 25000 nM
COc1ccc(-c2nc3ccccn3c2/C=C/C(=O)c2cc(OC)c(OC)c(OC)c2)cc1 | 11900 nM | 65500 nM
O=C(NCc1ccc(Cn2c(=O)sn(-c3ccccc3)c2=O)cc1)OCc1ccc2c(Br)cc(Br)c(O)c2n1 | 500 nM | 2010 nM
